Assays:
[1] = test system: human brain microvascular endothelial cell (BMEC); test: sAPP770 secreted from BMEC detected by APP770 ELISA; format: cell-based; conditions: culture 16 hr, n=4; for level of sAPP770 secreted from BMEC: cytokine 100 ng/ml
Source text: (A) Brief explanations of APP total ELISA and APP770 ELISA. The recognition sites of a trap antibody (with asterisk) and a detection antibody (without asterisk) in these ELISA systems are shown in the schematic drawing. (B) Western blot analysis. Anti-N terminal APP (22C11) antibody detects full-length APP695, APP751 and APP770 in the lysates of COS cells overexpressing APP695, APP751 and APP770, whereas anti-OX2 antibody used as a trap antibody in APP770 ELISA specifically recognizes APP770. (C) APP total ELISA detects sAPP695, sAPP751 and sAPP770 secreted from COS cells, whereas APP770 ELISA detects only sAPP770. (D) BMEC was cultured for 16 hr in the presence or absence of inflammatory cytokine (TNFα, IL-1β or IL-6; each 100 ng/ml), and sAPP770 secreted from the cells was detected by APP770 ELISA. […] (E) An influence on secretion of sAPP770 from BMEC by culture for 16 hr in the presence of TAPI-0 (10 μM). […] (F) The sAPP770 levels of human serum and human plasma samples are shown in mean±SEM (n=19).
Human APP695-pcDNA3.1, APP751-pcDNA3.1 and APP770-pcDNA3.1 used were those constructed in the previous study (J Biol Chem 285(51):40097-40103 (2010)). Human BMEC (Applied Cell Biology Research Institute) was cultured in CS-C complete medium added with 10% FBS, and used within 4 passages.
Using human sAPP total assay kit (IBL-Japan), sAPP695, sAPP751 and sAPP770 were detected according to the established protocol (http://www.ibl-japan.co.jp). The APP770 ELISA system was established as previously reported (Anal Chim Acta 631(1): 116-120 (2009)). Briefly explained, a 96 well plate was coated with an anti-OX2 antibody, and a horseradish peroxidase-conjugated anti-APP R101A4 antibody was used as a detection antibody. Human CSF (1:16 diluted with dilution buffer contained in kit), plasma and serum (1:75 diluted with dilution buffer contained in kit) were evaluated by APP total ELISA and APP770 ELISA.

[2] = test system: platelets; test: release of sAPP770 from collagen-stimulated platelets (PRP), APP770 ELISA; format: cell-based, human; conditions: collagen final concentration 3 μg/ml
Experimental: (A, B) PRP was stirred under stimulation with collagen (final concentration 3 μg/ml). At the time points shown in the Figure, each sample was centrifuged, and supernatant (A) […] and platelet pellet (B) were analyzed by APP770 ELISA. (C) Platelets were washed, stimulated with collagen, centrifuged, and sAPP770 released in the supernatant was analyzed. (D) Schematic drawing showing APP770 and the sites recognized by a series of anti-APP antibodies. (E) After stimulation of platelets with collagen and, at the time points shown in the Figure, the platelet pellets were solubilized, sAPP was pulled down from the platelet release product, and analyzed by western blotting using anti-APP(22C11) antibody, anti-OX2 antibody, anti-APP(C) antibody and anti-KPI antibody. […]
On the day of experiment, blood (16 ml) was collected from healthy human by using a vacuum blood collection tube (NIPRO CORPORATION) containing 3.8% sodium citrate. […] The obtained cell lysate was evaluated by ELISA and Western blot analysis.
Using human sAPP total assay kit (IBL-Japan), sAPP695, sAPP751 and sAPP770 were detected according to the established protocol (http://www.ibl-japan.co.jp). […] Human CSF (1:16 diluted with dilution buffer contained in kit), plasma and serum (1:75 diluted with dilution buffer contained in kit) were evaluated by APP total ELISA and APP770 ELISA.

IL-1β: recombinant human inflammatory cytokine from R&D Systems
level of sAPP770 secreted from BMEC [1]: significantly increased only slightly

CC(C)C[C@H](CC(=O)NO)C(=O)N[C@@H](Cc1ccc2ccccc2c1)C(=O)N[C@@H](C)C(N)=O [TAPI-0]
secretion of sAPP770 from BMEC ([1]; TAPI-0 10 μM): partially inhibited

IL-6: recombinant human inflammatory cytokine from R&D Systems
level of sAPP770 secreted from BMEC [1]: did not increase

collagen
level of sAPP770 in the platelet precipitate ([2]; after stimulation): decreased remarkably | level of sAPP770 in the PRP supernatant ([2]; one minute after stimulation): increased rapidly

TNFα
level of sAPP770 secreted from BMEC [1]: significantly increased only slightly

— patent publication US20150219644A1, “MARKER FOR ACUTE CORONARY SYNDROME, AND USE THEREOF” (RIKEN, priority 2012, published 2015)
